The source of these data is patent publication US20070010671A1, “Novel quinazoline derivatives and methods of treatment related to the use thereof” (priority 2003, published 2007).

pIC50: −log10 of the molar value. Where only a bound is given, the exact number is not on record here.

The first assay has as its target MCH receptor (Homo sapiens, UniProt Q99705). The experiment in a line: High throughput functional screening FLIPR/FDSS6000: inhibition of MCH-evoked intracellular Ca2+ changes. The settings on record: class by percent of control at 10^-7 M or IC50. The format is cell-based. An outline of the steps:
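Fluo4 fluorescence (Ex 488 nm, Em 530 nm) tracked MCH-evoked [Ca2+]i transients over 290 s by FLIPR or FDSS. Cells carried a constitutively active, non-endogenous receptor version. Compounds were added 3 min before a 50 nM MCH challenge.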
For the compound `CN(C)c1nc(N[C@H]2CC[C@@H](CNC(=S)Nc3ccccc3OC(F)(F)F)CC2)nc2ccccc12` [compound 631], the class is 2 (Class 2: The value of percent of control at 10^−7 M was from 40% to 60% or the value of IC50 was from 50 nM to 200 nM.).

As to `CN(C)c1nc(N[C@H]2CC[C@@H](CNC(=O)Nc3ccc(Cl)c(Cl)c3)CC2)nc2ccccc12` [compound 421, N-(3,4-dichlorophenyl)-N′-[(cis-4-{[4-(dimethylamino)quinazolin-2-yl]amino}cyclohexyl)methyl]urea], the class is recorded as 2 (Class 2: The value of percent of control at 10^−7 M was from 40% to 60% or the value of IC50 was from 50 nM to 200 nM.).

On to `Cc1ccc(CNC(=S)N[C@H]2CC[C@@H](Nc3nc(N(C)C)c4ccccc4n3)CC2)cc1` [compound 280], for which the class is on record as 3 (Class 3: The value of percent of control at 10^−7 M was more than 60% or the value of IC50 was more than 200 nM.).

As to `COc1ccc(NC(=O)NC[C@H]2CC[C@@H](Nc3nc(N(C)C)c4ccccc4n3)CC2)c([N+](=O)[O-])c1` [compound 557], the class was 3 (Class 3: The value of percent of control at 10^−7 M was more than 60% or the value of IC50 was more than 200 nM.).

On to `CCCCCCCOc1ccc(NC(=O)NC[C@H]2CC[C@@H](Nc3nc(N(C)C)c4ccccc4n3)CC2)cc1` [compound 554], for which the class was 3 (Class 3: The value of percent of control at 10^−7 M was more than 60% or the value of IC50 was more than 200 nM.).

For `Cc1ccccc1CNC(=S)N[C@H]1CC[C@@H](Nc2nc(N(C)C)c3ccccc3n2)CC1` [compound 303, N-(cis-4-{[4-(dimethylamino)quinazolin-2-yl]amino}cyclohexyl)-N′-(2-methylbenzyl)thiourea], the class was 2 (Class 2: The value of percent of control at 10^−7 M was from 40% to 60% or the value of IC50 was from 50 nM to 200 nM.).

In the case of `CCCCOC(=O)c1ccccc1NC(=O)N[C@H]1CC[C@@H](Nc2nc(N(C)C)c3ccccc3n2)CC1` [compound 330], the class is recorded as 3 (Class 3: The value of percent of control at 10^−7 M was more than 60% or the value of IC50 was more than 200 nM.).

As to `Cc1ccccc1CNC(=S)NC[C@H]1CC[C@@H](Nc2nc(N(C)C)c3ccccc3n2)CC1` [compound 727], the class is reported as 3 (Class 3: The value of percent of control at 10^−7 M was more than 60% or the value of IC50 was more than 200 nM.).

As for `CCCCOC(=O)c1ccc(NC(=O)NC[C@H]2CC[C@@H](Nc3nc(N(C)C)c4ccccc4n3)CC2)cc1` [compound 535], the class was 3 (Class 3: The value of percent of control at 10^−7 M was more than 60% or the value of IC50 was more than 200 nM.).

“N-[(cis-4-{[4-(dimethylamino)quinazolin-2-yl]amino}cyclohexyl)methyl]-N′-(2-methoxy-5-nitrophenyl)urea [compound 508]”: the class was 2 (Class 2: The value of percent of control at 10^−7 M was from 40% to 60% or the value of IC50 was from 50 nM to 200 nM.).

Regarding `CN(C)c1nc(N[C@H]2CC[C@@H](NC(=S)NCCN3CCCCC3)CC2)nc2ccccc12` [compound 395], the class is reported as 3 (Class 3: The value of percent of control at 10^−7 M was more than 60% or the value of IC50 was more than 200 nM.).

Turning to `CN(C)c1nc(N[C@H]2CC[C@@H](CNC(=O)Nc3cccc(C(F)(F)F)c3)CC2)nc2ccccc12` [compound 456], the class was 3 (Class 3: The value of percent of control at 10^−7 M was more than 60% or the value of IC50 was more than 200 nM.).

In the case of `CN(C)c1nc(N[C@H]2CC[C@@H](NC(=S)Nc3ccc(-c4cnco4)cc3)CC2)nc2ccccc12` [compound 401], the class is given as 3 (Class 3: The value of percent of control at 10^−7 M was more than 60% or the value of IC50 was more than 200 nM.).

In the case of `CN(C)c1nc(N[C@H]2CC[C@@H](CNC(=S)Nc3ccc([N+](=O)[O-])cc3Cl)CC2)nc2ccccc12` [compound 638], the class is listed as 3 (Class 3: The value of percent of control at 10^−7 M was more than 60% or the value of IC50 was more than 200 nM.).

`Cc1cccc(NC(=S)NC[C@H]2CC[C@@H](Nc3nc(N(C)C)c4ccccc4n3)CC2)c1` [compound 605]: the class was 3 (Class 3: The value of percent of control at 10^−7 M was more than 60% or the value of IC50 was more than 200 nM.).

As for `CN(C)c1nc(N[C@H]2CC[C@@H](CNC(=O)Nc3ccccc3-c3ccccc3)CC2)nc2ccccc12` [compound 412, N-biphenyl-2-yl-N′-[(cis-4-{[4-(dimethylamino)quinazolin-2-yl]amino}cyclohexyl)methyl]urea], the class is reported as 2 (Class 2: The value of percent of control at 10^−7 M was from 40% to 60% or the value of IC50 was from 50 nM to 200 nM.).

As to `CN(C)c1nc(N[C@H]2CC[C@@H](CNC(=S)NC3CCCCCCC3)CC2)nc2ccccc12` [compound 711], the class is recorded as 3 (Class 3: The value of percent of control at 10^−7 M was more than 60% or the value of IC50 was more than 200 nM.).

Take `COc1ccc(Cl)cc1NC(=S)NC[C@H]1CC[C@@H](Nc2nc(N(C)C)c3ccccc3n2)CC1` [compound 706]: the class was 2 (Class 2: The value of percent of control at 10^−7 M was from 40% to 60% or the value of IC50 was from 50 nM to 200 nM.).

As to `CN(C)c1nc(N[C@H]2CC[C@@H](NC(=O)Nc3ccccc3C#N)CC2)nc2ccccc12` [compound 340], the class was 3 (Class 3: The value of percent of control at 10^−7 M was more than 60% or the value of IC50 was more than 200 nM.).

As for `Cc1cc(Cl)cc(Cl)c1NC(=S)N[C@H]1CC[C@@H](Nc2nc(N(C)C)c3ccccc3n2)CC1` [compound 361, N-(2,4-dichloro-6-methylphenyl)-N′-(cis-4-{[4-(dimethylamino)quinazolin-2-yl]amino}cyclohexyl)thiourea], the class was 1 (Class 1: The value of percent of control at 10^−7 M was less than 40% or the value of IC50 was less than 50 nM.).

The assay is the same for the next values; noted with them: class by percent of control at 10^-7 M or by IC50; read-out: class.
Take `CN(C)c1nc(N[C@H]2CC[C@@H](NC(=O)NC3c4ccccc4-c4ccccc43)CC2)nc2ccccc12` [compound 841, N-(cis-4-{[4-(dimethylamino)quinazolin-2-yl]amino}cyclonexyl)-N′-9H-fluoren-9-ylurea]: the pIC50 was 6.70 to 7.30.

For `CN(C)c1nc(N[C@H]2CC[C@@H](NC(=O)NC3C[C@H]3c3ccccc3)CC2)nc2ccccc12` (stereo partly drawn) [compound 51, N-(cis-4-{[4-(dimethylamino)quinazolin-2-yl]amino}cyclohexyl)-N′-[(2S)-2-phenylcyclopropyl]urea], the pIC50 was greater than 7.30.

For `CN(C)c1nc(N[C@H]2CC[C@@H](CNC(=O)Oc3ccc(Br)cc3)CC2)nc2ccccc12` [compound 870], the pIC50 was less than 6.70.

As to `CN(C)c1nc(N[C@H]2CC[C@@H](NC(=O)NCc3ccccc3Cl)CC2)nc2ccccc12` [compound 91, N-(2-chlorobenzyl)-N′-(cis-4-{[4-(dimethylamino)quinazolin-2-yl]amino}cyclohexyl)urea], the pIC50 was greater than 7.30.

For the compound `CN(C)c1nc(N[C@H]2CC[C@@H](NC(=S)NCC3CCCO3)CC2)nc2ccccc12` (relative stereo) [compound 196], the pIC50 is less than 6.70.

Take `C=CCOC(=O)NC[C@H]1CC[C@@H](Nc2nc(N(C)C)c3ccccc3n2)CC1` [compound 877]: the pIC50 was less than 6.70.

For `Cc1cc(C)cc(NC(=O)N[C@H]2CC[C@@H](Nc3nc(N(C)C)c4ccccc4n3)CC2)c1` [compound 127, N-(cis-4-{[4-(dimethylamino)quinazolin-2-yl]amino}cyclohexyl)-N′-(3,5-dimethylphenyl)urea], the pIC50 is 6.70 to 7.30.

For `CN(C)c1nc(N[C@H]2CC[C@@H](NC(=O)Nc3ccc(Cc4ccccc4)cc3)CC2)nc2ccccc12` [compound 140], the pIC50 was less than 6.70.

Still in this assay, the particulars now being: class by percent of control at 10^−7 M or by IC50; read-out: class.
With `CN(C)c1nc(N[C@H]2CC[C@@H](C(=O)NCc3cccc(C(F)(F)F)c3)CC2)nc2cc(F)c(F)cc12` [Example 998, cis-4-{[4-(dimethylamino)-6,7-difluoroquinazolin-2-yl]amino}-N-[3-(trifluoromethyl)benzyl]cyclohexanecarboxamide], the pIC50 is greater than 7.30.

Turning to `CN(C)c1nc(N[C@H]2CC[C@@H](C(=O)NCc3c(F)cccc3F)CC2)nc2ccccc12` [Example 1152, cis-N-(2,6-difluorobenzyl)-4-{[4-(dimethylamino)quinazolin-2-yl]amino}cyclohexanecarboxamide], the pIC50 was greater than 7.30.

As for `Cc1ccc(CNC(=O)[C@H]2CC[C@@H](Nc3nc(N(C)C)c4ccccc4n3)CC2)cc1F` [Example 1143, cis-4-{[4-(dimethylamino)quinazolin-2-yl]amino}-N-(3-fluoro-4-methylbenzyl)cyclohexanecarboxamide], the pIC50 was 6.70 to 7.30.

With `CN(C)c1nc(N[C@H]2CC[C@@H](C(=O)NCc3cc(F)c(F)c(F)c3)CC2)nc2ccccc12` [Example 1171, cis-4-{[4-(dimethylamino)quinazolin-2-yl]amino}-N-(3,4,5-trifluorobenzyl)cyclohexanecarboxamide], the pIC50 was greater than 7.30.

On to `Cc1cccc(CNC(=O)[C@H]2CC[C@@H](Nc3nc(N(C)C)c4ccccc4n3)CC2)c1` [Example 1165, cis-4-{[4-(dimethylamino)quinazolin-2-yl]amino}-N-(3-methylbenzyl)cyclohexanecarboxamide], for which the pIC50 was greater than 7.30.

In the case of `CCC(=O)Nc1cccc(C(=O)N[C@H]2CC[C@@H](Nc3nc(N(C)C)c4ccccc4n3)CC2)c1` [Example 1200, N-(cis-4-{[4-(dimethylamino)quinazolin-2-yl]amino}cyclohexyl)-3-(propionylamino)benzamide], the pIC50 is greater than 7.30.

For `CN(C)c1nc(N[C@H]2CC[C@@H](C(=O)NCc3ccc(F)c(C(F)(F)F)c3)CC2)nc2ccccc12` [Example 1176, cis-4-{[4-(dimethylamino)quinazolin-2-yl]amino}-N-[4-fluoro-3-(trifluoromethyl)benzyl]cyclohexanecarboxamide], the pIC50 is greater than 7.30.
